Drawing on patent publication US5545639A, “Method of inhibiting transformed cells” (The United States of America as represented by the …, priority 1994, dated 1996), this text covers CC50 for one compound.

Assay [1] concerns DMS 273. In words: Dose response of growth, tumor cell line. Type of assay: cell-based. The settings on record: Homo sapiens; DMS 273, small cell lung cancer; read-out: 50% Loss (50% kill).
Assay [2] relates to DMS 114. Put plainly: Dose response of growth, tumor cell line. It counts as cell-based. The settings on record: Homo sapiens; DMS 114, small cell lung cancer; read-out: 50% Loss (50% kill). As for the experimental part:
Indeed, 70% of the cell lines were shown not only to experience precluded growth, but cell death, when exposed to less then 100 μM of the active ingredient.

Molecules are shown by their SMILES.

In the case of `ClCc1ccc2ccc3ccc(CCl)nc3c2n1` [2,9-bis(chloromethyl)-1,10-phenanthroline], the figures for the CC50 in assay [1] and in assay [2] were over 100 µM and 7.72 µM, respectively.
